Measurements: patent publication US8063043B2, “Salts of N-[6-cis-2,6-dimethylmorpholin-4-yl)pyridine-3-yl]-2-methyl-4′-(trifluoromethoxy)[1,1′-biphenyl]-3-carboxamide” (Novartis AG, priority 2008, dated 2011)
Several values for one entry are separate records, joined by “and”; a condition that tells them apart may be missing. Identical values can stand only once. Like-named read-outs stand apart in the source and are kept apart here.

Key:
[1] = Hygroscopicity, DVS sorption/desorption isotherms; format: physicochemical; conditions: for DVS Desorp. Weight % chg. / DVS Sorp. Weight % chg.: 25° C.
Experimental: Sorption/desorption isotherms: Instrument, Surface Measurement System DVS-1 temperature at 25±0.5° C.

[2] = Solid form after stress test (XRPD/DSC); format: physicochemical
[3] = Approximate solubility at 25° C.; conditions: thermodynamic from solid
[4] = Thermogravimetry (weight loss / loss on drying); format: physicochemical; conditions: at 150° C.
[5] = Crystal modification after 72 hours vibration (polymorphism behavior of slurries); format: physicochemical
From the text: The slurries were filtered and the solids collected for XRPD analyses.

[6] = Wistar rats, 10 mg/kg, suspension
[7] = Stability: appearance color (CL); format: physicochemical
[8] = Bulk corrosivity with stainless steel coupon; format: physicochemical; conditions: 2 day 80% r.h. with stainless steel coupon; change in the surface of the coupon
[9] = Stability measured by degradation products (DP, HPLC area-%); format: physicochemical
Experimental: DPs are analyzed by HPLC (method see Table 3). They are calculated as area-% products. Compositions of the mixtures in mass % are as follows.
For salts in water, acetonitrile was added to dilute the 0.2% slurry to 0.1% clear solution. For salts in methanol, acetonitrile or acetonitrile/water (50:50, v/v), the corresponding solvent or solvent mixture was added to dilute the 0.2% slurry to 0.1% clear solution. For salts in 0.5% CMC, HPMC cellulose 4000 0.5%, or Tween 80, 0.8%, tetrahydrofuran and water were added to dilute the 2% slurry to 0.1% clear solution and to reach tetrahydrofuran/water 50:50 (v/v). For bulk stability samples (including the samples in excipient mixtures), acetonitrile/water (80:20, v/v) was added to make 0.1% clear solution.

[10] = pH of 1% solution or suspension; format: physicochemical; conditions: In water
Experimental: The solutions were stirred continuously as the pH was measured.

in vivo = conditions: Wistar, rat, 10 mg/kg, Wistar rats, suspension
[11] = individual rats, listed as Compound A Sulfate, monosulfate salt

## Cc1c(C(=O)Nc2ccc(N3C[C@@H](C)O[C@@H](C)C3)nc2)cccc1-c1ccc(OC(F)(F)F)cc1.O=S(=O)(O)O [Sulfate, mono]
[1]
  XRPD after DVS test: No change
[1]; RH 0.0%
  DVS Desorp. Weight % chg.: 1.007%
  DVS Sorp. Weight % chg.: 0.000%
[1]; RH 25.0%
  DVS Desorp. Weight % chg.: 1.256%
  DVS Sorp. Weight % chg.: 1.232%
[1]; RH 50.0%
  DVS Desorp. Weight % chg.: 1.495%
  DVS Sorp. Weight % chg.: 1.455%
[1]; RH 75.0%
  DVS Desorp. Weight % chg.: 1.716%
  DVS Sorp. Weight % chg.: 1.634%
[1]; RH 95.0%
  DVS Desorp. Weight % chg.: 2.330%
  DVS Sorp. Weight % chg.: 2.330%
[2]; Solid state, 2 week 50° C., tight container
  Bulk (XRPD): change: No
[2]; Solid state, 2 week 50° C./75% r.h., footnote: new peak in the XRPD pattern compared with unstressed diphosphate
  Bulk (XRPD): change: No
[2]; Solid state, 2 week 80° C., tight container
  Bulk (DSC): change: No
[2]; Solid state, 2 week 80° C./75% r.h., footnote: pattern similar to that of phosphate, with one extra peak
  Bulk (XRPD): change: No
[2]; Xenon light (approx. 1200 kLuxh)
  Bulk (XRPD): change: No
[3]; 0.1N HCl, pH 1, simulated gastric fluid
  solubility at 1 day: 3 µg/mL
[3]; 2-propanol, organic solvent or mixture
  solubility at 1 day: 4000 µg/mL
[3]; acetone, organic solvent or mixture
  solubility at 1 day: 1700 µg/mL
[3]; acetonitrile, organic solvent or mixture
  solubility at 1 day: 1400 µg/mL
[3]; ethanol, organic solvent or mixture
  solubility at 1 day: 19700 µg/mL
[3]; ethyl acetate, organic solvent or mixture
  solubility at 1 day: 90 µg/mL
[3]; methanol, organic solvent or mixture
  solubility at 1 day: 24400 µg/mL
[3]; phosphate buffer, pH 6.8, aqueous buffer
  solubility at 1 day: 2 µg/mL
[3]; water
  solubility at 1 day: 7 µg/mL
[4]; Heating rate 10° C./min
  Thermogravimetry (weight loss in %): 1.89% at 150 °C
[4]; Hygroscopicity, as is
  Loss on drying by TGA (%): 1.89 at 150 °C %
[5]; 0.1N HCl solution
  Crystal modification after 72 hours vibration (DSC/XRPD/TG): XRPD pattern
[5]; Acetonitrile, N—no, Y—yes
  Crystal modification after 72 hours vibration (DSC/XRPD/TG): N, no form change
[5]; Ethanol, N—no, Y—yes
  Crystal modification after 72 hours vibration (DSC/XRPD/TG): N, no form change
[5]; Ethyl acetate, N—no, Y—yes
  Crystal modification after 72 hours vibration (DSC/XRPD/TG): N, no form change
[5]; Iso Propanol, N—no, Y—yes
  Crystal modification after 72 hours vibration (DSC/XRPD/TG): N, no form change
[5]; Water
  Crystal modification after 72 hours vibration (DSC/XRPD/TG): Dissociated to free
  Final pH of slurry: Final pH 1.26
[5]; pH 3 buffer
  Crystal modification after 72 hours vibration (DSC/XRPD/TG): Dissociated to free
  Final pH of slurry: Final pH 2.00
[5]; pH 6.8 buffer
  Crystal modification after 72 hours vibration (DSC/XRPD/TG): Dissociated to free
  Final pH of slurry: Final pH 1.82
[6]
  less exposure in-vivo than the diphosphate salt: about 40%
[6]; [11]
  AUC0-24/dose: 2590 (ng*h/mL)/(mg/kg/day) and 2870 (ng*h/mL)/(mg/kg/day) and 3620 (ng*h/mL)/(mg/kg/day)
  Cmax: 1860 ng/mL and 3560 ng/mL
  Cmax/Dose: 190 (ng/mL)/(mg/kg/day) (2×) and 360 (ng/mL)/(mg/kg/day)
  tmax: 4 h and 2 h and 1 h
[7]; 0.2% solutions or suspensions, 2 week 50° C., Acetonitrile/Water (50:50), clear solution after stress test (*)
  CL: A *
[7]; 0.2% solutions or suspensions, 2 week 50° C., Acetonitrile, clear solution after stress test (*)
  CL: A *
[7]; 0.2% solutions or suspensions, 2 week 50° C., Methanol, clear solution after stress test (*)
  CL: A *
[7]; 0.2% solutions or suspensions, 2 week 50° C., Water, suspension (↓)
  CL: A ↓
[7]; 2% (or 5%) solutions or suspensions, 1 day room temperature, 0.5% CMC, suspension (↓)
  CL: A ↓
[7]; 2% (or 5%) solutions or suspensions, 1 day room temperature, HPMC Cellulose 4000 0.5%, suspension (↓)
  CL: A ↓
[7]; 2% (or 5%) solutions or suspensions, 1 day room temperature, Tween 80, 0.8%, suspension (↓)
  CL: A ↓
[8]
  Bulk corrosivity: No visible change
[9]; 0.2% solutions or suspensions, 2 week 50° C., Acetonitrile
  DP [%]: 0.44%
[9]; 0.2% solutions or suspensions, 2 week 50° C., Acetonitrile/Water (50:50)
  DP [%]: 0.80%
[9]; 0.2% solutions or suspensions, 2 week 50° C., Methanol
  DP [%]: 0.68%
[9]; 0.2% solutions or suspensions, 2 week 50° C., Water
  DP [%]: 0.41%
[9]; 2% (or 5%) solutions or suspensions, 1 day room temperature, 0.5% CMC
  DP [%]: 0.45%
[9]; 2% (or 5%) solutions or suspensions, 1 day room temperature, HPMC Cellulose 4000 0.5%
  DP [%]: 0.47%
[9]; 2% (or 5%) solutions or suspensions, 1 day room temperature, Tween 80, 0.8%
  DP [%]: 0.43%
[9]; 2 weeks 50° C., tight container, 1% in mixture 1 (Lactose/maize starch/Aerosil/Magnesiumstearate)
  DP [%]: 0.41%
[9]; 2 weeks 50° C., tight container, 1% in mixture 2 (Mannitol/Avicel PH 102/Cutina HR)
  DP [%]: 0.44%
[9]; 2 weeks 50° C./75% r.h., 1% in mixture 1
  DP [%]: 0.70%
[9]; 2 weeks 50° C./75% r.h., 1% in mixture 2
  DP [%]: 0.41%
[9]; Solid state, 2 week 50° C., tight container, Bulk (HPLC)
  DP [%]: 0.40%
[9]; Solid state, 2 week 50° C./75% r.h., Bulk (HPLC)
  DP [%]: 0.42%
[9]; Solid state, 2 week 80° C., tight container, Bulk (HPLC)
  DP [%]: 0.43%
[9]; Solid state, 2 week 80° C./75% r.h., Bulk (HPLC)
  DP [%]: 1.34%
[9]; Unstressed drug substance, bulk
  DP [%]: 0.42%
[9]; Xenon light (approx. 1200 kLuxh), Bulk (HPLC)
  DP [%]: 1.1%
[10]
  pH of 1% solution or suspension: 1.45
In vivo; Cmax, individual rats
  Cmax: 1900 ng/mL
In vivo; mean tmax
  tmax: 2.3 h
